Test results taken from patent US8372810B2, “Anti-tumor drug, medicament, composition, and use thereof” (Gene Signal International SA, priority 2007, dated 2013).
Values joined by “and” are separate entries in the source; they are usually repeats but may differ in a detail not shown here. Identical values can stand only once. “Also recorded” adds a separate entry of the source.

Tests used:
HUVEC = assay: Wound assay, migration of human endothelial cells; assay type: cell-based; details: 18 hours; 497C-T2 0.83 and 1.66 μM; 497C-T3 2.4 μM; 497C-T4 3.52 μM; 497C-T5 3.65 μM; C-terminal tail 4.92 μM
Method: Cell migration was tested by the wound assay described by Sato and Rifkin (J Cell Biol. 1988; 107:1199) with few modifications. HUVEC grown in growth medium EGM-2MV (Cambrex) were seeded in 24-well plates at 80 000 cells per well in 500 μL of growth medium and grown to confluence at 37° C. in a humidified atmosphere containing 5% CO2. Cells were scrapped with a plastic tip on one line only. After wounding, the culture medium was changed for fresh medium (control, FIG. 3a) or fresh medium supplemented with: • FIG. 3b: 497C-T2 20 μg/mL (0.83 μM) • FIG. 3c: 497C-T2 40 μg/mL (1.66 μM) • FIG. 3d: 497C-T3 48 μg/mL (2.4 μM) • FIG. 3e: 497C-T4 60 μg/mL (3.52 μM) • FIG. 3f: 497C-T5 61 μg/mL (3.65 μM) • FIG. 3g: C-terminal tail 63 μg/mL (4.92 μM)
After 18 hours of culture, cells were observed and photographed under the inverted microscope (Analysis, Olympus, Rungis, France).

CALU-6 tumors = assay: CALU-6 non-small cell lung cancer xenograft in Swiss Nude mice, tumor growth; assay type: in vivo; details: IP Q2DX8, CDDP 5 mg/kg (G2), 497C-T2 10 mg/kg (G3), 497C-T2 10 mg/kg + CDDP 5 mg/kg (G4)
Method: CALU-6 cells were cultured as adherent cells in complete EMEM medium (Ref. CM1MEM18-01, batch No. 462502, Eurobio, France) 10% fetal calf serum (FCS; Ref. CVFSVF00-01, batch No. 513021, Eurobio, France) under a 37° C., 5% CO2 humidified atmosphere. They were amplified in 75 cm^2-flasks to reach 90×10^6 cells.
At D0, CALU-6 cells (human lung carcinoma) were collected from 75 cm^2-flasks by removing the medium and adding 3 ml of trypsine-EDTA (Ref. CEZTDA00-0U, batch No. 633920, Eurobio, France). After 5 min of incubation at 37° C., cells had detached from the plastic and the enzymatic reaction was stopped by adding 3 ml of EMEM medium containing 10% fetal calf serum. Cells were then centrifuged at 700 g for 5 min at room temperature. They were resuspended in serum-free EMEM culture medium. Cells were counted and viability assessment by Trypan Blue exclusion (Ref. CSTCOL03-OU, batch No. 434511, Eurobio, France). The number of viable CALU-6 cells was >99%. The number of cells was then adjusted to 25×10^6 cells/ml in serum-free medium.
CALU-6 cells 5×10^6 cells/mouse in 200 μl of serum-free medium) were then implanted subcutaneously in the right flank of each mouse.
At D12 post-implantation of the CALU-6 cells, the thirty mice were randomized into six groups of 5 mice. Tumor volumes had reached 228 to 468 mm^3 and mean tumor volumes were not statistically different between groups after randomization.
Mean tumor volumes (MTV), mean relative tumor volume (MRTV) and tumor growth inhibition (T/C) were calculated as for example 7.

NCI H460 human tumor = NCI H460 human tumor xenograft in Swiss Nude mice, tumor growth; assay type: in vivo; parameters: key to MRTV D28 / MRTV D12 / MRTV D14 / MRTV D16 / MRTV D18 / MRTV D20 / MRTV D22 / MRTV D24 / MRTV D26: ratio of mean tumor volume at day t to volume at injection (D12)
Method: NCI H460 cells were cultured as adherent cells in complete RPMI 1640 medium (Ref. CM1RRM08-01, batch No. 623615, Eurobio, France) containing 2 mM L-Glutamine, adjusted to 4.5 g/L glucose (Ref. G7528, batch No. 033K0121, Sigma, France) and supplemented with 10 mM HEPES (Ref. H0887, batch No. 113K2338, Sigma, France), 1.0 mM sodium pyruvate (Ref. CSTVAT00-0U, batch No. 520818, Sigma, France) and 10% fetal calf serum (FCS; Ref. CVFSVF00-01, batch No. S13021, Eurobio, France) under a 37° C., 5% CO2 humidified atmosphere. They were amplified in 75 cm^2-flasks to reach 90×10^6 cells.
At D0, NCI H460 cells (human lung carcinoma) were collected from 75 cm^2-flasks by removing the medium and adding 3 ml of trypsine-EDTA (Ref. CEZTDA00-0U, batch No. 633920, Eurobio, France). After 5 min of incubation at 37° C., cells were detached from the plastic and the enzymatic reaction was stopped by adding 3 ml of RPMI 1640 medium containing 10% fetal calf serum. Cells were then centrifuged at 700 g for 5 min at room temperature. They were resuspended in serum-free RPMI 1640 culture medium containing L-Glutamine (2 mM), glucose (4.5 g/l), sodium pyruvate (1 mM) and buffered with HEPES (10 mM). Cells were counted and the number of viable NCI H460 cells was >99%. The number of cells was then adjusted to 25.10^6 cells/ml in serum-free medium.
NCI H460 cells (5.10^6 cells/mouse in 200 μL of serum-free medium) were then implanted subcutaneously in the right flank of each mouse.
At D12 post-implantation of the NCI H460 cells, the thirty mice were randomized into six groups of 5 mice. Tumor volumes had reached 228 to 468 mm^3 and mean tumor volumes were not statistically different between groups after randomization.
All solutions were injected IP.
Animals have been observed daily.
• Tumor growth curves were drawn using the mean tumor volumes (MTV), • Mean Relative tumor volume (MRTV) was calculated as the ratio between the MTV at time t and the volume at the time of injection (t=D12), • Tumor growth inhibition (T/C, %) was evaluated as the ratio of the median tumor volumes of treated groups versus vehicle group.
Statistical analyses of tumor volumes (V), time to reach ‘V’, tumor-doubling time (DT), relative tumor volume (RTV) and tumor growth inhibition (T/C) were performed for all groups. Data are expressed as mean±SD. Groups of data were normally distributed. Univariate analysis were performed to assess differences between groups. Statistical significance was then determined using the Student's t test. A P<0.05 was considered as statistically significant. The Statistical analysis was performed using XLSTAT (Addinsoft, France).

[1] = IP Q2DX8, CDDP 5 mg/kg (G2), 497C-T2 10 mg/kg (G3), 497C-T2 10 mg/kg + CDDP 5 mg/kg (G5)

## 497C-T4: d1, d2 and e domains of the LEL domain of protein 497C, SEQ ID NO:5 (49 amino acids) (IPPSCCMNETDCNPQDLHNLTVAATKVNQKGCYDLVTSFMETNMGIIAG; listed as Homo sapiens)
HUVEC
  inhibition of endothelial cell migration: less active than 497C-T2; also recorded: limited activities relative to that of 497C-T2

## 497C-T5: d2 and e domains of the LEL domain of protein 497C, SEQ ID NO:6 (43 amino acids) (MNETDCNPQDLHNLTVAATKVNQKGCYDLVTSFMETNMGIIAG; listed as Homo sapiens)
HUVEC
  inhibition of endothelial cell migration: very limited anti-migratory activity; also recorded: limited activities relative to that of 497C-T2

## N.N.[Cl][Pt][Cl] [Cisplatin, cis-diamineplatinum (II) dichloride, reference compound]
CALU-6 tumors
  MRTV D14: 3.11
  MRTV D16: 2.39
  MRTV D18: 2.66
  MRTV D20: 3.08
  MRTV D22: 3.70
  MRTV D24: 4.84
  MRTV D26: 4.11
  MRTV D28: 5.98
  MTV at D28: 742.44±215.85 mm^3
CALU-6 tumors; reference day
  MRTV D12: 1
NCI H460 human tumor; D28, CDDP 5 mg/kg IP Q2DX8 (G2)
  reduction of tumor size compared to the vehicle-treated group 1: 68%
NCI H460 human tumor; [1]
  DT (doubling time of tumor volume): 5.12 ± 2.89 days and 5.12 days
  MRTV D14: 1.59
  MRTV D16: 1.74
  MRTV D18: 2.30
  MRTV D20: 2.29
  MRTV D22: 3.39
  MRTV D24: 3.67
  MRTV D26: 3.67
  MRTV D28: 4.88
  MTV at D14: 513.35 mm^3
  MTV at D24: 1083.74 mm^3
  MTV at D28: 1440±1097 mm^3 and 1440.18 mm^3
NCI H460 human tumor; reference day, IP Q2DX8, CDDP 5 mg/kg (G2), 497C-T2 10 mg/kg (G3), 497C-T2 10 mg/kg + CDDP 5 mg/kg (G5)
  MRTV D12: 1.00

B1: 497C-T3: c, d1, d2 and e domains of the LEL domain of protein 497C, SEQ ID NO:4 (74 amino acids) (protein, listed as Homo sapiens)
chain: QRSLSCCGVQNYTNWSTSPYFLEHGIPPSCCMNETDCNPQDLHNLTVAATKVNQKGCYDLVTSFMETNMGIIAG
HUVEC
  inhibition of endothelial cell migration: inhibited cell migration similarly to the protein 497C-T2; also recorded: almost as potent than 497C-T2
